Target: T1, CfAA10 (Cellulomonas fimi, UniProt F4H6A3)
T1 construct: gene Celf_0270; apparently with its C-terminal CBM (truncation told only for the C. japonicus enzyme)
Assay: Amplex Red / horseradish peroxidase coupled H2O2 production, initial rates
Format: biochemical
Conditions: reductant varied, no polysaccharide, O2 from air, 50 mM sodium phosphate pH 6.0, room temperature, 2 µM LPMO

T1 sequence (F4H6A3 entry or part of it): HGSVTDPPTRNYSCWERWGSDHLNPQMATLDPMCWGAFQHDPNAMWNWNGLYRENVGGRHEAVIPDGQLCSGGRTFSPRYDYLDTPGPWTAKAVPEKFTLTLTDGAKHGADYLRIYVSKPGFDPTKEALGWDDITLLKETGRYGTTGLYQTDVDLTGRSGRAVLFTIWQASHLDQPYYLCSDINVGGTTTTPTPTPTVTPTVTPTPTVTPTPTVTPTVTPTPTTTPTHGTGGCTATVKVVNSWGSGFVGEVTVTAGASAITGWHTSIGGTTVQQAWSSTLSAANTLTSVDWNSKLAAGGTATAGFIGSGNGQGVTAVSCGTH

O=C1O[C@H]([C@@H](O)CO)C(O)=C1O [ascorbate]
KM: KM is consistently lower when CjX183 is used as the reductant compared with ascorbate
